The results in this text go back to patent publication US6335339B1, “Triazine antiviral compounds” (Scriptgen Pharmaceuticals, Inc., priority 1998, dated 2002).

pEC50: −log10 of the molar value. Read-outs that look alike come from different tables or passages of the source.

The test system of one data set is 2.2.15 cells. Put plainly: neutral red dye uptake cytotoxicity. Particulars: 9 days treatment, read-out: 50% Cell Death CC50. The class given is cell-based. Summed up:
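Confluent 2.2.15 cultures, same conditions as antiviral assay, treated daily for 9 days with 4 concentrations (3.3-fold dilutions), triplicate wells. 24 hours after the final dose, cells stained 30 minutes with 0.01% neutral red, dye extracted and A510 read; values as % of untreated cultures, CC50 as 50% cell death.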

The next data set relates to HBV. Put plainly: antiviral assay in 2.2.15 cells producing HBV (virion DNA dot blot). Particulars: for pEC50: extra-cellular virus reduced by 50%, 2.2.15 cells, 9 days treatment, read-out: Antiviral EC50. The class given is cell-based, Hepatitis B virus. Summed up:
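2.2.15 cells (integrated HBV genome) were treated daily with compound at 4 concentrations for 9 days; medium harvested 24 h later and virion DNA quantified by dot-blot hybridization. EC50/EC90 are µM concentrations reducing extracellular virus by 50%/90%; cytotoxicity by neutral red uptake, CC50 as 50% cell death.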

As for `COc1ccccc1C=NNc1nc(Nc2ccc([N+](=O)[O-])cc2)nc(Nc2ccc(C)c(C)c2)n1` [Compound 94], the CC50 in the data set with 2.2.15 cells was greater than 300 µM. For the same compound, the pEC50 in the data set on HBV was less than 4.00.

`CNc1nc(NN=Cc2ccccc2[N+](=O)[O-])nc(Nc2ccccc2)n1` [Compound 65]: the 50% cytotoxic concentration (CC50) in the data set with 2.2.15 cells is 17 µM. In the data set with HBV, the pEC50 is less than 4.00.

With `Cc1[nH]c2ccccc2c1C=NNc1nc(Nc2ccccc2)nc(N2CCOCC2)n1` [Compound 4], the CC50 in the data set with 2.2.15 cells was found to be 3.7 µM. In the data set on HBV, the pEC50 was 5.47.

With `CC(C)c1ccc(C=NNc2nc(Nc3ccc([N+](=O)[O-])cc3)nc(N3CCCCCC3)n2)cc1` [Compound 56], the cytotoxic concentration (CC50) with 2.2.15 cells worked out at 63 µM. In the data set on HBV, the pEC50 is less than 4.00.

In the case of `CCCCN(CCCC)c1nc(NN=Cc2c[nH]c3ccccc23)nc(Nc2ccc([N+](=O)[O-])cc2)n1` [Compound 39], the CC50 with 2.2.15 cells turned out to be 5.3 µM. The negative-log EC50 (pEC50) in the data set on HBV is 6.00.

For `C(=NNc1nc(Nc2ccccc2)nc(N2CCCCC2)n1)c1ccccc1` [Compound 3], the CC50 in the data set with 2.2.15 cells was greater than 100 µM. Besides, the pEC50 in the data set with HBV is 5.32.

As to `Brc1cc2c(cc1C=NNc1nc(NCc3ccccc3)nc(Nc3ccccc3)n1)OCO2` [Compound 43], the CC50 in the data set with 2.2.15 cells came to 87 µM. In addition, the negative logarithm of the EC50 (pEC50) in the data set on HBV is 6.08.

As for `Cc1[nH]c2ccccc2c1C=NNc1nc(Nc2ccccc2)nc(N2CCCCC2)n1` [Compound 88], the CC50 in the data set on 2.2.15 cells is greater than 100 µM. Further, the pEC50 in the data set on HBV was 5.32.

As for `CCN(CC)c1nc(N/N=C/c2ccc([N+](=O)[O-])cc2)nc(Nc2cc(C)ccc2C)n1` [Compound 63], the 50% cytotoxic concentration (CC50) in the data set on 2.2.15 cells is greater than 100 µM. Also, the negative-log EC50 (pEC50) in the data set on HBV is less than 4.00.

Turning to `O=[N+]([O-])c1cc(C=NNc2nc(Nc3ccccc3)nc(N3CCOCC3)n2)ccc1Cl` [Compound 52], the cytotoxic concentration (CC50) with 2.2.15 cells stood at 11 µM. For the same compound, the negative-log EC50 (pEC50) in the data set with HBV was 5.35.

`O=[N+]([O-])c1ccc(Nc2nc(N/N=C/c3cccc(Cl)c3)nc(N3CCCCC3)n2)cc1` [Compound 41]: the 50% cytotoxic concentration (CC50) with 2.2.15 cells was greater than 300 µM. The pEC50 in the data set with HBV was 4.44.

As for `C(=Cc1ccccc1)C=NNc1nc(NCc2ccccc2)nc(Nc2ccccc2)n1` [Compound 91], in the data set with 2.2.15 cells, the half-maximal cytotoxic concentration (CC50) was greater than 300 µM. Moreover, the negative-log EC50 (pEC50) in the data set on HBV is less than 4.00.

As to `CC(C)c1ccc(C=NNc2nc(Nc3ccc([N+](=O)[O-])cc3)nc(N3CCCCC3)n2)cc1` [Compound 62], the CC50 in the data set with 2.2.15 cells is greater than 100 µM. The negative logarithm of the EC50 (pEC50) in the data set on HBV is less than 4.00.

With `FC(F)(F)c1cccc(Nc2nc(Nc3cccc(Br)c3)nc(N3CCOCC3)n2)c1` [Compound 38], the CC50 in the data set on 2.2.15 cells was 125 µM. For the same compound, the pEC50 in the data set with HBV is 6.23.

`CCCCN(CCCC)c1nc(NN=C(C)c2ccccc2)nc(Nc2ccc([N+](=O)[O-])cc2)n1` [Compound 74]: the CC50 in the data set on 2.2.15 cells is greater than 100 µM. Moreover, the negative logarithm of the EC50 (pEC50) in the data set on HBV is less than 4.00.

`Cc1ccc(Nc2nc(NN=Cc3ccc(Cl)cc3)nc(Nc3ccccc3)n2)c(C)c1` [Compound 42]: in the data set with 2.2.15 cells, the CC50 came out at 237 µM. For the same compound, the negative-log EC50 (pEC50) with HBV is 5.21.

As for `Cc1ccc(Nc2nc(NN=Cc3cccc(Br)c3)nc(Nc3ccccc3)n2)c(C)c1` [Compound 49], in the data set with 2.2.15 cells, the 50% cytotoxic concentration (CC50) is 140 µM. Further, the pEC50 with HBV was 5.92.

On to `CC(C)(C)Nc1nc(NCc2ccccc2)nc(NN=Cc2ccc3c(c2)OCO3)n1` [Compound 67], for which the CC50 with 2.2.15 cells was greater than 100 µM. Further, in the data set on HBV, the pEC50 is less than 4.00.

On to `CCN(CC)c1nc(NN=Cc2cc([N+](=O)[O-])ccc2OC)nc(Nc2cc(C)ccc2C)n1` [Compound 85], for which the CC50 in the data set with 2.2.15 cells turned out to be 209 µM. For the same compound, in the data set on HBV, the pEC50 is less than 4.00.

On to `CCN(CC)c1nc(NN=Cc2ccc(F)cc2)nc(Nc2ccc([N+](=O)[O-])cc2)n1` [Compound 68], for which the 50% cytotoxic concentration (CC50) in the data set with 2.2.15 cells was greater than 300 µM. Also, the negative-log EC50 (pEC50) in the data set with HBV was less than 4.00.

For the compound `O=[N+]([O-])c1ccc(C=NNc2nc(Nc3ccccc3)nc(NC3CCCCC3)n2)cc1` [Compound 46], the CC50 in the data set with 2.2.15 cells was greater than 100 µM. For the same compound, the negative logarithm of the EC50 (pEC50) in the data set with HBV is less than 4.00.

In the case of `Cc1[nH]c2ccccc2c1C=NNc1nc(NCc2ccccc2)nc(Nc2ccccc2)n1` [Compound 50], the CC50 in the data set with 2.2.15 cells was determined as 30 µM. The pEC50 in the data set on HBV was 4.54.

On to `COc1ccc(C=NNc2nc(Nc3ccc([N+](=O)[O-])cc3)nc(N3CCCCC3)n2)cc1` [Compound 44], for which, in the data set on 2.2.15 cells, the CC50 was found to be 285 µM. Besides, in the data set with HBV, the pEC50 was 5.32.

For the compound `Oc1ccc(Nc2nc(Nc3cccc(C(F)(F)F)c3)nc(N3CCOCC3)n2)cc1` [Compound 53], the CC50 in the data set on 2.2.15 cells amounted to 72 µM. Further, the pEC50 in the data set with HBV was 5.92.

Regarding `CC(C)(C)Nc1nc(NCc2ccccc2)nc(N/N=C/c2ccccc2F)n1` [Compound 93, 2-fluorobenzaldehyde N-[4-(benzylamino)-6-(tert-butylamino)-1,3,5-triazin-2-yl]hydrazone], the EC50 in the data set on HBV (Hepatitis B virus, 216 h, read-out: Antiviral EC50 (μM)) came out at 0.503 µM. Besides, the pEC50 in the data set on HBV (Hepatitis B virus, 216 h) was 8.22.

For `Cc1ccc(Nc2nc(NN=Cc3ccc4c(c3)OCO4)nc(Nc3ccccc3)n2)c(C)c1` [Compound 51], the cytotoxic concentration (CC50) in the data set with 2.2.15 cells was 130 µM. For the same compound, the negative-log EC50 (pEC50) with HBV was 4.82.

Consider `Cc1ccc(Nc2nc(NN=Cc3ccc(Cl)c(Cl)c3)nc(Nc3ccccc3)n2)c(C)c1` [Compound 40], for which the cytotoxic concentration (CC50) in the data set with 2.2.15 cells turned out to be 136 µM. The negative-log EC50 (pEC50) with HBV was 4.52.

As for `COc1ccc(C=NNc2nc(Nc3ccccc3)nc(Nc3ccc(C)cc3C)n2)c(OC)c1` [Compound 61], in the data set on 2.2.15 cells, the cytotoxic concentration (CC50) is 1.3 µM. For the same compound, the negative logarithm of the EC50 (pEC50) with HBV is 5.43.
